Data on two compounds can be found in publication PMC9841576, “Characterisation of C101248: A novel selective THIK-1 channel inhibitor for the modulation of microglial NLRP3-inflammasome” (Neuropharmacology, 2023).

Holding throughout (format): cell-based
For assay [1], the system named is NLRP3-dependent release of IL-1β. The experiment in a line: LPS/ATP-induced IL-1β release from differentiated THP1 cells overexpressing human THIK-1. The settings on record: 1 μM, THIK-1 overexpressing THP1 cells. The protocol: (§1) THP1 cells, obtained from ATCC, are monocytes isolated from peripheral blood of a leukaemia patient. THP1 cells were grown in RPMI 1640 supplemented with 10% fetal bovine serum (FBS, Hyclone), 1% PenStrep (Invitrogen), and 1% GlutaMax (Invitrogen), and 0.05 mM of 2-mercaptoethanol. To overexpress human THIK-1, THP1 cells were differentiated with 100 ng/ml PMA for 24 h prior to transfection with THIK-1 mRNA synthesized as described in the supplementary material. Cell suspensions (2.5 × 10^6 cells in […]) in the presence of 200 μg/ml mRNA were electroporated with the MaxCyte (STX instrument) in an OC-25 MaxCyte Electroporation cassette using manufacturer settings for THP1 cells. Cell suspensions were transferred to a 6-well plate and allowed to recover for 20 min at 37 °C. Cells were seeded into 384-well plates (10,000 cells/well) for thallium flux assays or 96-well plates (50,000 cells/well) for inflammasome assays the following day. Overexpressing and mock-transfected cells were primed with 100 ng/ml of LPS for 3.5 h prior to addition of compounds 30 min before stimulation with 5 mM ATP. Supernatants were collected 2 h after addition of ATP and stored at −20 °C until the detection of IL-1β.
IL-1β from culture supernatants was measured with DuoSet ELISA kit (R&D Systems) following the manufacturer instructions.

Assay [2] addresses T1, THIK-1 (Homo sapiens, UniProt Q9HB14).
T1 construct: expressed in transfected cells
T1 sequence (Q9HB14 1-408): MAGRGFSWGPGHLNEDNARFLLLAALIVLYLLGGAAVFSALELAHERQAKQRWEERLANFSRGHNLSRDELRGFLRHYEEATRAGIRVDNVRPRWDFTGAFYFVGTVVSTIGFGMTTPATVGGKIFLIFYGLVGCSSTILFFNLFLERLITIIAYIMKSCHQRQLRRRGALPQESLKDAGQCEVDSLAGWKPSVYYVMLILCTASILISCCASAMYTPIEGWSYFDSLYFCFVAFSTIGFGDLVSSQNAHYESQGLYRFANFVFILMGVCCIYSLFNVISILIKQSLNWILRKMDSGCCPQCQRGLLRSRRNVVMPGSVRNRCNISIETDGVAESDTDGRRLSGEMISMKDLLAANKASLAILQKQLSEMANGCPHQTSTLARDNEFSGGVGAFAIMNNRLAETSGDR
Put plainly: FLIPR thallium influx assay, HEK-hTHIK-1 cells. To be noted: HEK-hTHIK-1, normalised to TPA controls; read-out: IC50, inhibition of THIK-1 constitutive activity (thallium influx). The protocol: HEK-293 cells were transfected with human THIK-1, TREK-1, TWIK-2, or mouse THIK-1 cDNA cloned into pcDNA3.1, using either Fugene HD transfection reagent (Promega) or electroporation (MaxCyte STX instrument). Cells stably expressing the relevant genes were selected based on resistance to 500 μg/ml geneticin (Gibco). For human THIK-1 and TWIK-2 expressing cells, monoclonal lines were isolated by limited dilution cloning; mouse THIK-1 and human TREK-1 expressing cells were maintained as polyclonal pools. The HEK-293 pools and monoclones stably expressing the relevant genes were maintained in DMEM (Life Technologies), supplemented with 10% FCIII (HyClone, Fetal clone III) and 500 μg/ml geneticin. A CHO-Kv2.1 cell line was purchased from Millipore (accession NM_004975) and maintained in F12 (Life Technologies), supplemented with 10% FCSIII (Thermo Scientific) and 500 μg/ml geneticin (Life Technologies). For thallium flux assays, banks of frozen cell aliquots were prepared the day prior to assay, cells were thawed into media and seeded into PDL coated 384-well plates (Corning) at 25,000 (human/mouse THIK-1, TREK-1) or 30,000 (TWIK-2) cells/well (25 μl/well). CHO-Kv2.1 cells were seeded into non-PDL coated plates (Corning) at 5000 cells/well. Plated cells were incubated overnight at 37 °C, 5% CO2 in a humidified atmosphere. For Q-Patch assays, cells were cultured for 7 days prior to assay, dissociated, and diluted to 1–2.5 million/ml in EX-CELL ACF serum free media containing HEPES (25 mM; Life Technologies), penicillin/streptomycin (100 U/ml, 100 μg/ml; Life Technologies) and a trypsin inhibitor (0.04 mg/ml).
A fluorescence-based thallium influx assay (Molecular Devices potassium assay kit) was used to monitor channel activity. In brief, component A was reconstituted in 17 ml of chloride-free assay buffer (130 mM sodium D-gluconate, 5 mM potassium D-gluconate, 2 mM calcium D-gluconate, 1 mM magnesium D-gluconate, 5 mM NaHCO3, 20 mM HEPES; pH adjusted to 7.4 with NaOH and filtered (0.45 μm filter)) and component C reconstituted in 30 μl of DMSO. Components A and C were combined, and probenecid was added (Life Technologies; final assay concentration (FAC) 4.75 mM for HEK cell lines and 2.47 mM for CHO-Kv2.1) to provide the final dye solution. Media was removed from the cell plates and replaced with dye (20 μl/well) and the plates were incubated at room temperature in the dark for 60 min. On the day of the assay, a diluted compound plate (3x FAC in 1.5% DMSO) was created. Control wells contained either DMSO vehicle (1.5%, 3x FAC) or tetrapentylammonium chloride (TPA; Sigma, 258962; 1.5 mM in 1.5% DMSO, 3x FAC). A 3x thallium stimulation plate was also prepared, to provide a FAC of either 1 mM (human THIK-1) or 3 mM (mouse THIK-1, TREK-1, TWIK-2) thallium sulphate (in assay buffer). For Kv2.1, the FAC of thallium sulphate was 2.6 mM and this was prepared in assay buffer containing potassium sulphate (Sigma P9458; FAC 23.3 mM). Following 60 min of dye loading, 10 μl from the 3x FAC compound plate was added into the cell plate, which was then incubated for 15 min at room temperature in the dark. Using a fluorescent imaging plate reader (FLIPR) tetra plate reader, 15 μl thallium stimulus solution was added to the cell plate and the fluorescence signal recorded every second for 1 min (excitation: 470–495 nm, emission: 515–575 nm).

Assay [3] has as its target T1, THIK-1. Put plainly: Thallium influx in human THIK-1 overexpressing differentiated THP1 cells. To be noted: THIK-1 mRNA-transfected differentiated THP1 cells; read-out: IC50, block of thallium influx. Here is the method: as §1, with “Overexpressing and mock-transfected cells were primed with 100 ng/ml of LPS for 3.5 h prior to addition of compounds 30 min before stimulation with 5 mM ATP. Supernatants were collected 2 h after addition of ATP and stored at −20 °C until the detection of IL-1β.” left out
A fluorescence-based thallium influx assay (Molecular Devices potassium assay kit) was used to monitor channel activity. […] Using a fluorescent imaging plate reader (FLIPR) tetra plate reader, 15 μl thallium stimulus solution was added to the cell plate and the fluorescence signal recorded every second for 1 min (excitation: 470–495 nm, emission: 515–575 nm).

The structures appear in SMILES notation.

Consider `CC(C)(O)c1coc(S(=O)(=O)NC(=O)Nc2c3c(cc4c2CCC4)CCC3)c1` [MCC950, reference compound], for which, in assay [1], the “effect on ATP-stimulated IL-1β release” value is on record as “completely blocked”.

Regarding `CCCCC[N+](CCCCC)(CCCCC)CCCCC` [TPA, tetrapentylammonium chloride, reference compound], the IC50 (in general, the point on the concentration scale where inhibition reaches its midpoint) was 4.7 µM in assay [2] and 6.8 µM in assay [3].
